Assay results: publication PMC9579148 (European Journal of Medicinal Chemistry, 2022)
Residues, ends and D or L forms follow the SMILES beside them. *: point of attachment. Octanoyl = CCCCCCCC(=O)*; Boc = CC(C)(C)OC(=O)*

Tests used:
SARS-CoV-2 = conditions: read-out: anti-SARS-CoV-2 activity EC50; cited from earlier work
M^pro = conditions: octapeptide progenitor, earlier work; cited from earlier work
SARS-CoV-2 M^pro = SARS-CoV-2 M^pro (Severe acute respiratory syndrome coronavirus 2, UniProt P0DTD1); format: binding; conditions: ITC
[1] = tested on: SARS-CoV-2 RG2674 (South African); experiment: Antiviral CPE reduction assay in Vero cells, RG2674; format: cell-based; conditions: 100 CCID50, CPE, 5 days
[2] = Stability test in aqueous solution; format: physicochemical; conditions: PBS pH 7.0, 25 °C and 37 °C, 3, 6, 8 and 24 h, HPLC

In the case of Ac-GGVLVQPG-NH2 [peptide 2], the EC50 (SARS-CoV-2) is listed as 17.6 ± 2.4 µM.

In the case of Cc1cc(C(=O)N[C@@H](C)C(=O)N[C@H](C(=O)N[C@@H](CC(C)C)C(=O)N[C@H](/C=C/C(=O)OCc2ccccc2)C[C@@H]2CCNC2=O)C(C)C)no1 [N3, reference compound], the EC50 (SARS-CoV-2) is listed as 16.8 ± 1.7 µM.

For AT1001, the “enzymatic inhibition activity (partial inhibition)” value (M^pro) is given as “about 30%”.

In the case of CCCCCCCC(=O)NCC(=O)N[C@@H](Cc1ccccc1)C(=O)N[C@H](C=O)Cc1c[nH]cn1 [compound 58, Octanoyl-Gly-Phe-His-CHO] (Octanoyl-Gly-Phe-His-aldehyde), the “Cytotoxicity, Cell morphology (MCC)” value (Vero cells) is reported as ≥100 μM and the “Stoichiometry (N)” value (SARS-CoV-2 M^pro) is reported as 0.966 ± 0.013.

With CC(C)(C)OC(=O)NCC(=O)N[C@@H](Cc1ccccc1)C(=O)N[C@H](C=O)Cc1c[nH]cn1 [compound 57, Boc-Gly-Phe-His-CHO] (Boc-Gly-Phe-His-aldehyde) the “Cytotoxicity, Cell morphology (MCC)” value (Vero cells) was ≥100 μM and the “Stoichiometry (N)” value (SARS-CoV-2 M^pro) was 0.991 ± 0.015.

With CC(=O)NCC(=O)N[C@@H](Cc1ccccc1)C(=O)N[C@H](C=O)Cc1c[nH]cn1 [compound 4, Ac-Gly-Phe-His-CHO] (Ac-Gly-Phe-His-aldehyde) the “Cytotoxicity, Cell morphology (MCC)” value (Vero cells) was ≥100 μM, the “Antiviral activity (EC50) RG2674” value [1] was “ineffective” and the “Stability in aqueous solution” value [2] was “stable”. The “Stoichiometry (N)” value (SARS-CoV-2 M^pro) was 1.040 ± 0.012.
